pIC50: −log10 of the molar value. Like-named read-outs stand apart in the source and are kept apart here.
Key:
human Nav 1.5 = human Nav 1.5 (Homo sapiens (Human), UniProt Q14524); assay: Nav 1.5 IonWorks Quattro (IWQ) in vitro assay; format: cell-based
human Nav1.7 = human Nav1.7 (Homo sapiens (Human), UniProt Q15858); assay: Nav 1.7 in vitro PatchXpress (PX) assay; format: cell-based
[1] = in-vitro Nav 1.5 IWQ data, read-out: NAV 1.5 IWQ (IC50)

human Nav 1.5, sequence (Q14524 whole entry): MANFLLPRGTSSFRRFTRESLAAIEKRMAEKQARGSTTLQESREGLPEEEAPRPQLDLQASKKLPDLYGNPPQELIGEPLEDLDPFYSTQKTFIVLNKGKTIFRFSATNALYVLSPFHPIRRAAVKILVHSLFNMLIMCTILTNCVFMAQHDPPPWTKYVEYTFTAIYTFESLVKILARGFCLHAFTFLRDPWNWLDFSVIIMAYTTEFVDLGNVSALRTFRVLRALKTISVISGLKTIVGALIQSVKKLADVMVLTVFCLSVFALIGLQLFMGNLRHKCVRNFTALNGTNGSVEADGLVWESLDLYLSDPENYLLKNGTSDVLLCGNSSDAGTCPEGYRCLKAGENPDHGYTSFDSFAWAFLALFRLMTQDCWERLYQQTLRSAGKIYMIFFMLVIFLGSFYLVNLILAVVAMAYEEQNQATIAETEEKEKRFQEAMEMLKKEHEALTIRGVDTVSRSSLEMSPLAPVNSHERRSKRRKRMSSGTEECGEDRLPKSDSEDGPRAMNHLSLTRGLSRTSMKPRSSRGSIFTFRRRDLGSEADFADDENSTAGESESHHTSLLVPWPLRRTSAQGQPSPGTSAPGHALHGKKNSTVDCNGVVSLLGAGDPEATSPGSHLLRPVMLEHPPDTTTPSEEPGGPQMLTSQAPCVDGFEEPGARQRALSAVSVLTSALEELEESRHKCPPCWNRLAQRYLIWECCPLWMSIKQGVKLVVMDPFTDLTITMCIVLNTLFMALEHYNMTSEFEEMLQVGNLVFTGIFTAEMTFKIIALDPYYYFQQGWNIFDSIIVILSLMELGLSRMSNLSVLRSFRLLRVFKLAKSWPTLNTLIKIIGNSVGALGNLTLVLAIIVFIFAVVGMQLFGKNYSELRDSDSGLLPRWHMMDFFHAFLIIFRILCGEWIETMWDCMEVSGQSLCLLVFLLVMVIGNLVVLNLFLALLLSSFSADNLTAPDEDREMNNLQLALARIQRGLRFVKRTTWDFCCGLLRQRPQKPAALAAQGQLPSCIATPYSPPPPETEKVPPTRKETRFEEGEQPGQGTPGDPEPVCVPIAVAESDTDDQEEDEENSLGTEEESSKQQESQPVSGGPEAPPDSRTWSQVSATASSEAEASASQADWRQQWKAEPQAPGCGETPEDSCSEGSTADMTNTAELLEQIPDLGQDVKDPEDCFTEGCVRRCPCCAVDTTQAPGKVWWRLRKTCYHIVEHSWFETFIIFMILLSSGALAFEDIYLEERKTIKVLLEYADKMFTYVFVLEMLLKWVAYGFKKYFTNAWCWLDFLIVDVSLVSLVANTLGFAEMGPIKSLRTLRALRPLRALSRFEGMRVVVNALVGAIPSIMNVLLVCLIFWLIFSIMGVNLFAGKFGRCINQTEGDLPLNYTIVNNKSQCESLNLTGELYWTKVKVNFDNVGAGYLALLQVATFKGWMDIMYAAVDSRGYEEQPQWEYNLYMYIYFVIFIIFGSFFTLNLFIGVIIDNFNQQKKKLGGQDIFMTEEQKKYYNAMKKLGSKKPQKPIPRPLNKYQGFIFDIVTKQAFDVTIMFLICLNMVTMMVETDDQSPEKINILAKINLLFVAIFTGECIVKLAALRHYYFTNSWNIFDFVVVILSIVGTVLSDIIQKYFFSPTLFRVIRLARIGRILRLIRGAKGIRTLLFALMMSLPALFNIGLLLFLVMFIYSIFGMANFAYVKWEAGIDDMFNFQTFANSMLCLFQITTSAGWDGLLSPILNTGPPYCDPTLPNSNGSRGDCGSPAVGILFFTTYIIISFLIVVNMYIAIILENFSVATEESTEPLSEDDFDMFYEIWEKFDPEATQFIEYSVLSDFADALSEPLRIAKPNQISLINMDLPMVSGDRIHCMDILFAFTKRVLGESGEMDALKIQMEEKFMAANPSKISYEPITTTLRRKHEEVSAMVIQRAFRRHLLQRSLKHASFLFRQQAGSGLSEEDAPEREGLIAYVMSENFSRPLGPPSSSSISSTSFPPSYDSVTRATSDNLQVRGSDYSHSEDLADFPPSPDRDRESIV
human Nav1.7, sequence (Q15858 whole entry): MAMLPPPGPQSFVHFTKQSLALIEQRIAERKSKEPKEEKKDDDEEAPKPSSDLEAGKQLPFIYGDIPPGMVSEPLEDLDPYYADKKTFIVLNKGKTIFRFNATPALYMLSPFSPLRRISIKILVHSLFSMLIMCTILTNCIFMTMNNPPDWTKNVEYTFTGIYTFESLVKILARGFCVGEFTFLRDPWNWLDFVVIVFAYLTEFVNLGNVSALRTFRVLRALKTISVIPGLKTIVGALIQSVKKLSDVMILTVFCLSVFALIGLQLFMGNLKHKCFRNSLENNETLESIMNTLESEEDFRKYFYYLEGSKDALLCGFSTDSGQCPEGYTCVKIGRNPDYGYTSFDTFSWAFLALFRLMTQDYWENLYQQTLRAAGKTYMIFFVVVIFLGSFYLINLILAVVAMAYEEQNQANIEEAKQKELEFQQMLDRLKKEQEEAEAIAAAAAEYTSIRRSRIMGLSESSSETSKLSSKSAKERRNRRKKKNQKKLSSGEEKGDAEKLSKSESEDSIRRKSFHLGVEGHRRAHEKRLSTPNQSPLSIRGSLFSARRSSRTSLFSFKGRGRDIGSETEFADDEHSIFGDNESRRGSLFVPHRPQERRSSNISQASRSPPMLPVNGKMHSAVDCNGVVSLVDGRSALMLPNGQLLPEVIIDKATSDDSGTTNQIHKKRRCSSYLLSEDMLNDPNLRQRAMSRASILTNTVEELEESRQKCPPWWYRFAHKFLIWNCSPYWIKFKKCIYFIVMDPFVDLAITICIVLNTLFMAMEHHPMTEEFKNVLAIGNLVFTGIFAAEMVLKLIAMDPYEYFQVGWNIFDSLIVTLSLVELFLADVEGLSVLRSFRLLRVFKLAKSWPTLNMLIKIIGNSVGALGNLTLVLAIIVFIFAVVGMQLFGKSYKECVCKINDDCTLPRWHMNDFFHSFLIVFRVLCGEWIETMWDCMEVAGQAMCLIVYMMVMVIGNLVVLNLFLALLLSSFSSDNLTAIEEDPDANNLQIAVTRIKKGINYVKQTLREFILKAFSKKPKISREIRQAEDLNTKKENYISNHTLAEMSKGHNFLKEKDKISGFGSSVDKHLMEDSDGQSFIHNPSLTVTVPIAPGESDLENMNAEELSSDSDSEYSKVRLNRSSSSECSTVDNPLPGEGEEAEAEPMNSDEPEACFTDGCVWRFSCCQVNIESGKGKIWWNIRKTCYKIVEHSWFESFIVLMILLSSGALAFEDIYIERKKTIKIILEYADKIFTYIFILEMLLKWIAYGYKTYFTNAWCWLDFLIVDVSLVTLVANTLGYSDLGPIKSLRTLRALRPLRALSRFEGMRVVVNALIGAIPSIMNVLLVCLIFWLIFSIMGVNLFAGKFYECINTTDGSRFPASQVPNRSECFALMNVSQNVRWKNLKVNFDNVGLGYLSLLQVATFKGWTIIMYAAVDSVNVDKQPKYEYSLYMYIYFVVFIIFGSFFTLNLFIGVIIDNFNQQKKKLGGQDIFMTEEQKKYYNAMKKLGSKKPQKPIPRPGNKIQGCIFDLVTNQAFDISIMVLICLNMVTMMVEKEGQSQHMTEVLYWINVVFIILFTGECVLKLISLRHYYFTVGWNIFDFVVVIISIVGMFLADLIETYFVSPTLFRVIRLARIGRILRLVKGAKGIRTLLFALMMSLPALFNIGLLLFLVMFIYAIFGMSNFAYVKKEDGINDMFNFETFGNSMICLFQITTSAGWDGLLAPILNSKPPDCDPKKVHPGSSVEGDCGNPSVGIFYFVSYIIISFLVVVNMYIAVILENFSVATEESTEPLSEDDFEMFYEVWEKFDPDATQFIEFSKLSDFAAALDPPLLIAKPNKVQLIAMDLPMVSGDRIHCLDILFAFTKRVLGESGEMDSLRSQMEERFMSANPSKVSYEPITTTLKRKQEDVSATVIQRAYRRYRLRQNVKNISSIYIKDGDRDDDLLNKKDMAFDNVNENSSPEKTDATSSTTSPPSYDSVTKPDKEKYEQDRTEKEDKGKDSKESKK

Structure (SMILES)	pIC50 (human Nav1.7)	pIC50 (human Nav1.7; in-vitro Nav 1.7 PX data)	pIC50 (human Nav 1.5; read-out: NAV 1.5 IWQ IC50)	pIC50 (human Nav 1.5; [1])
Cc1cc(C(=O)NS(C)(=O)=O)c(F)cc1-c1cnc(Oc2ccc(Cl)c(Cl)c2)c(Cl)c1 [Example 664, 4-(5-chloro-6-(3,4-dichlorophenoxy)-3-pyridinyl)-2-fluoro-5-methyl-N-(methylsulfonyl)benzamide]	7.09	–	< 5.00	–
Cc1cc(C(=O)NS(C)(=O)=O)c(F)cc1-c1cnc(Oc2ccc(Cl)cc2Cl)c(Cl)c1 [Example 665, 4-(5-chloro-6-(2,4-dichlorophenoxy)-3-pyridinyl)-2-fluoro-5-methyl-N-(methylsulfonyl)benzamide]	7.45	–	5.33	–
Cc1cc(C(=O)NS(C)(=O)=O)c(F)cc1-c1cnc(Oc2c(F)cc(F)cc2Cl)c(Cl)c1 [Example 666, 4-(5-chloro-6-(2-chloro-4,6-difluorophenoxy)-3-pyridinyl)-2-fluoro-5-methyl-N-(methylsulfonyl)benzamide]	7.30	–	5.47	–
Cc1cc(C(=O)NS(C)(=O)=O)c(F)cc1-c1cnc(Oc2cc(Cl)c(Cl)cc2Cl)c(Cl)c1 [Example 667, 4-(5-chloro-6-(2,4,5-trichlorophenoxy)-3-pyridinyl)-2-fluoro-5-methyl-N-(methylsulfonyl)benzamide]	7.30	–	5.13	–
Cc1cc(C(=O)NS(C)(=O)=O)c(F)cc1-c1cnc(Oc2cc(F)c(Cl)c(F)c2)c(Cl)c1 [Example 668, 4-(5-chloro-6-(4-chloro-3,5-difluorophenoxy)-3-pyridinyl)-2-fluoro-5-methyl-N-(methylsulfonyl)benzamide]	7.01	–	< 5.00	–
Cc1cc(C(=O)NS(C)(=O)=O)c(F)cc1-c1cnc(Oc2c(C)cc(Cl)cc2C)c(Cl)c1 [Example 669, 4-(5-chloro-6-(4-chloro-2,6-dimethylphenoxy)-3-pyridinyl)-2-fluoro-5-methyl-N-(methylsulfonyl)benzamide]	7.18	–	5.44	–
Cc1cc(C(=O)NS(C)(=O)=O)c(F)cc1-c1cnc(Oc2c(Cl)ccc(C)c2F)c(Cl)c1 [Example 670, 4-(5-chloro-6-(6-chloro-2-fluoro-3-methylphenoxy)-3-pyridinyl)-2-fluoro-5-methyl-N-(methylsulfonyl)benzamide]	7.08	–	< 5.00	–
Cc1cc(C(=O)NS(C)(=O)=O)c(F)cc1-c1cnc(Oc2ccc(F)c3c2CCC3)c(Cl)c1 [Example 672, 4-(5-chloro-6-((7-fluoro-2,3-dihydro-1H-inden-4-yl)oxy)-3-pyridinyl)-2-fluoro-5-methyl-N-(methylsulfonyl)benzamide]	7.17	–	< 5.00	–
Cc1cc(C(=O)NS(C)(=O)=O)c(F)cc1-c1cnc(O[C@@H](C)c2cc(Cl)ccc2Cl)c(Cl)c1 [Example 674, 4-(5-chloro-6-((1S)-1-(2,5-dichlorophenyl)ethoxy)-3-pyridinyl)-2-fluoro-5-methyl-N-(methylsulfonyl)benzamide]	7.08	–	5.31	–
CC[C@@H](Oc1ncc(-c2cc(F)c(C(=O)NS(C)(=O)=O)cc2C)cc1Cl)c1ccc(F)c(C)c1 [Example 675, 4-(5-chloro-6-(((1R)-1-(4-fluoro-3-methylphenyl)propyl)oxy)-3-pyridinyl)-2-fluoro-5-methyl-N-(methylsulfonyl)benzamide]	7.27	–	< 5.00	–
Cc1cc(Cl)ccc1COc1ncc(-c2cc(F)c(C(=O)NS(C)(=O)=O)cc2C)cc1Cl [Example 681, 4-(5-chloro-6-((4-chloro-2-methylbenzyl)oxy)-3-pyridinyl)-2-fluoro-5-methyl-N-(methylsulfonyl)benzamide]	7.01	–	< 5.31	–
COc1cc(C(=O)NS(C)(=O)=O)ccc1-c1cnc(Oc2c(C)cc(Cl)cc2Cl)c(C#N)c1 [Example 689, 4-(5-cyano-6-(2,4-dichloro-6-methylphenoxy)-3-pyridinyl)-3-methoxy-N-(methylsulfonyl)benzamide]	7.55	–	6.00	–
COc1cc(C(=O)NS(C)(=O)=O)c(F)cc1-c1cnc(Oc2cc(Cl)cc(Cl)c2)c(Cl)c1 [Example 695, 4-(5-chloro-6-(3,5-dichlorophenoxy)-3-pyridinyl)-2-fluoro-5-methoxy-N-(methylsulfonyl)benzamide]	7.28	–	< 5.52	–
COc1cc(C(=O)NS(C)(=O)=O)c(F)cc1-c1cnc(O[C@H](C)c2ccccc2)c(Cl)c1 [Example 696, 4-(5-chloro-6-((1R)-1-phenylethoxy)-3-pyridinyl)-2-fluoro-5-methoxy-N-(methylsulfonyl)benzamide, 4-(5-chloro-6-((1S)-1-phenylethoxy)-3-pyridinyl)-2-fluoro-5-methoxy-N-(methylsulfonyl)benzamide]	7.03	–	< 5.52	–
COc1cc(C(=O)NS(C)(=O)=O)c(F)cc1-c1cnc(Oc2ccc(C)c(F)c2)c(Cl)c1 [Example 698, 4-(5-chloro-6-(3-fluoro-4-methylphenoxy)-3-pyridinyl)-2-fluoro-5-methoxy-N-(methylsulfonyl)benzamide]	7.23	–	5.22	–

Further lines, with some results ahead:

pIC50 (human Nav1.7)	pIC50 (human Nav1.7; in-vitro Nav 1.7 PX data)	Structure (SMILES)	pIC50 (human Nav 1.5; read-out: NAV 1.5 IWQ IC50)	pIC50 (human Nav 1.5; [1])
7.26	–	COc1cc(C(=O)NS(C)(=O)=O)c(F)cc1-c1cnc(Oc2cc(Cl)ccc2C)c(Cl)c1 [Example 699, 4-(5-chloro-6-(5-chloro-2-methylphenoxy)-3-pyridinyl)-2-fluoro-5-methoxy-N-(methylsulfonyl)benzamide]	< 5.52	–
7.04	–	COc1cc(C(=O)NS(C)(=O)=O)c(F)cc1-c1cnc(Oc2cc(F)cc(F)c2F)c(Cl)c1 [Example 700, 4-(5-chloro-6-(2,3,5-trifluorophenoxy)-3-pyridinyl)-2-fluoro-5-methoxy-N-(methylsulfonyl)benzamide]	< 5.52	–
7.15	–	COc1cc(C(=O)NS(C)(=O)=O)c(F)cc1-c1cnc(Oc2ccc(F)c(F)c2F)c(Cl)c1 [Example 701, 4-(5-chloro-6-(2,3,4-trifluorophenoxy)-3-pyridinyl)-2-fluoro-5-methoxy-N-(methylsulfonyl)benzamide]	< 5.52	–
7.11	–	COc1cc(C(=O)NS(C)(=O)=O)c(F)cc1-c1cnc(O[C@H]2C[C@H]3CC[C@@H]2C3)c(Cl)c1 [Example 703, 4-(6-((1R,2S,4S)-bicyclo[2.2.1]hept-2-yloxy)-5-chloro-3-pyridinyl)-2-fluoro-5-methoxy-N-(methylsulfonyl)benzamide]	< 5.52	–
–	7.49	COc1cc(C(=O)NS(C)(=O)=O)c(F)cc1-c1cnc(OCc2nc3ccccc3s2)c(Cl)c1 [Example 708, 4-(6-(1,3-benzothiazol-2-ylmethoxy)-5-chloro-3-pyridinyl)-2-fluoro-5-methoxy-N-(methylsulfonyl)benzamide]	–	< 5.52
–	7.46	COc1cc(C(=O)NS(C)(=O)=O)c(F)cc1-c1cnc(OCc2nc3ccccc3s2)c(Cl)c1 [Example 709, 4-(6-(1,3-benzothiazol-2-ylmethoxy)-5-chloro-3-pyridinyl)-2-fluoro-5-methoxy-N-(methylsulfonyl)benzamide]	–	< 5.52
–	7.06	Cc1cc(C(=O)NS(C)(=O)=O)c(F)cc1-c1cnc(O[C@@H](C)c2nc3ccccc3s2)c(Cl)c1 [Example 710, 4-(6-((1S)-1-(1,3-benzothiazol-2-yl)ethoxy)-5-chloro-3-pyridinyl)-2-fluoro-5-methyl-N-(methylsulfonyl)benzamide]	–	< 5.52
–	7.09	CNS(=O)(=O)NC(=O)c1ccc(-c2cnc(Oc3cc(Cl)cc(Cl)c3)c(Cl)c2)c(OC)c1 [Example 772, 4-(5-Chloro-6-(3,5-Dichlorophenoxy)Pyridin-3-yl)-3-Methoxy-N—(N-Methylsulfamoyl)Benzamide]	–	< 5.52
–	7.10	COc1cc(C(=O)NS(C)(=O)=O)ccc1-c1cnc(COc2ccc(Cl)c(Cl)c2)c(Cl)c1 [Example 774, 4-(5-Chloro-6-((3,4-Dichlorophenoxy)-Methyl)Pyridin-3-yl)-3-Methoxy-N-(Methylsulfonyl)Benzamide]	–	< 5.52
–	7.11	Cc1cc(C(=O)NS(C)(=O)=O)ccc1-c1cnc(Oc2c(C)cc(Cl)cc2Cl)c(Cl)c1 [Example 775, 4-(5-Chloro-6-(2,4-Dichloro-6-Methylphenoxy)-3-Pyridinyl)-3-Methyl-N-(Methyl Sulfonyl)Benzamide]	–	< 5.31
–	7.61	CCS(=O)(=O)NC(=O)c1ccc(-c2cnc(Oc3c(C)cc(Cl)cc3Cl)c(Cl)c2)c(OC)c1 [Example 788, 4-(5-chloro-6-(2,4-dichloro-6-methylphenoxy)-3-pyridinyl)-N-(ethylsulfonyl)-3-methoxybenzamide]	–	5.86
–	6.96	CCCS(=O)(=O)NC(=O)c1cc(C)c(-c2cnc(OC3CCC3)c(Cl)c2)cc1F [Example 796, 4-(5-chloro-6-(cyclobutyloxy)-3-pyridinyl)-2-fluoro-5-methyl-N-(propylsulfonyl)benzamide]	–	5.03
–	7.64	Cc1cc(C(=O)NS(=O)(=O)c2nccs2)c(F)cc1-c1cnc(Oc2c(C)cc(Cl)cc2Cl)c(Cl)c1 [Example 799, 4-(5-chloro-6-(2,4-dichloro-6-methylphenoxy)-3-pyridinyl)-2-fluoro-5-methyl-N-(1,3-thiazol-2-ylsulfonyl)benzamide]	–	6.17
–	7.02	CCS(=O)(=O)NC(=O)c1cc(C)c(-c2cnc(Oc3c(C)cc(Cl)cc3Cl)c(Cl)c2)cc1F [Example 800, 4-(5-chloro-6-(2,4-dichloro-6-methylphenoxy)-3-pyridinyl)-N-(ethylsulfonyl)-2-fluoro-5-methylbenzamide]	–	5.90
–	7.25	Cc1cc(C(=O)NS(=O)(=O)C2CC2)c(F)cc1-c1cnc(Oc2c(C)cc(Cl)cc2Cl)c(Cl)c1 [Example 801, 4-(5-chloro-6-(2,4-dichloro-6-methylphenoxy)-3-pyridinyl)-N-(cyclopropylsulfonyl)-2-fluoro-5-methylbenzamide]	–	6.31
–	7.04	COc1cc(C(=O)NS(C)(=O)=O)ccc1-c1cc(Cl)nc(Oc2cc(Cl)cc(Cl)c2)c1 [Example 803, 4-(2-chloro-6-(3,5-dichlorophenoxy)-4-pyridinyl)-3-methoxy-N-(methylsulfonyl)benzamide]	–	< 5.52

Reference: patent publication US9663508B2, “Biaryl acyl-sulfonamide compounds as sodium channel inhibitors” (AMGEN INC., priority 2013, dated 2017)
